From publication PMC12557367, ““Precision on Two Wheels”–Structural Refinement of ^64Cu- and ^68Ga-Labeled Bicyclic Peptides Targeting Nectin‑4 for Improved Tumor Imaging: From Preclinical Development to First-in-Human Application” (Journal of Medicinal Chemistry, 2025)
Numbered stars: 1 amine (or outer) side, 2 acyl side, 3 side chain; on linkers, the order of the positions; unused ones are H or OH. Bridge positions count the residues as written; N and C are the ends. Square brackets hold non-standard residues; d marks the D form. Peptide text beside a SMILES is read from it. * marks the point of attachment. TATA = O=C(CC[*:1])N1CN(C(=O)CC[*:2])CN(C(=O)CC[*:3])C1; X1 = O=C(O)CN1CCN(CC(=O)O)CCN([C@H](CCC(=O)*)C(=O)O)CC1; 1Nal = N[C@@H](Cc1cccc2ccccc12)C(=O)O; Hyp = O=C(O)[C@@H]1C[C@@H](O)CN1; hArg = N=C(N)NCCCC[C@H](N)C(=O)O; hSer = N[C@@H](CCO)C(=O)O; Nle = CCCC[C@H](N)C(=O)O

Experiments:
[1] = biological target: T1, recombinant human nectin-4 (Homo sapiens, UniProt Q96NY8); assay: FA-based competitive binding assay with probe 1a; conditions: competitive binding curve, variable slope
T1 construct: close to the value determined for the complete extracellular domain of nectin-4 (0.94 nM); purchased R&D Systems 2659-N4
T1 sequence (Q96NY8 32-349 limits assumed): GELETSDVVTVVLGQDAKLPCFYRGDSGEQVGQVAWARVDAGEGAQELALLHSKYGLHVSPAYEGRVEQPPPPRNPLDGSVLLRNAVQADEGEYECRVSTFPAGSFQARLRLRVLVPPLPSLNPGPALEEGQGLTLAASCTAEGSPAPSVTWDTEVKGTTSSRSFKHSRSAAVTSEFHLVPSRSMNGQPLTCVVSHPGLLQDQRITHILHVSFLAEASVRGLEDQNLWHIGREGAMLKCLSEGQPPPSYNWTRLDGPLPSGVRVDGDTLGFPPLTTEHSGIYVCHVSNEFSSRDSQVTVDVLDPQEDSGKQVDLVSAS

[2] = type: in vitro ADME; conditions: 24 h
Protocol: Human plasma was collected as previously described. For assessing the stability in human plasma, 10 μL (10 MBq) of the labeling solution of [ ^ 64 Cu]-Cu-1e, [ ^ 64 Cu]-Cu-3a, or [ ^ 64 Cu]-Cu-4 were added to 90 μL of human plasma, and the mixture was incubated at 37 °C for up to 24 h. At distinct time points (1, 2, 4, and 24 h), an aliquot of 20 μL was withdrawn and diluted with 60 μL of a mixture named “Supersol” (composition as described above). This was followed by centrifugation at 16,100g for 2 min. The supernatant was analyzed by radio-HPLC (the same system as used for analyzing the ^64Cu-labelings).

[3] = Chromatographic hydrophobicity index at immobilized artificial membrane (CHI IAM7.4) by HPLC; type: physicochemical; conditions: nonlabeled peptide, pH 7.4
Protocol: Consequently, the CHI IAM7.4 values indicate that unfavorable pharmacokinetic behavior due to nonspecific binding is not to be expected.
All commercial reagents and solvents were used without further purification, unless otherwise specified. […] The purity of compound 5, which bears selenomethionine, was lower due to the lability to oxidation (as discussed above). The HPLC-based determination of chromatographic hydrophobicity indices at an immobilized artificial membrane was performed as previously described according to the method developed by Valko et al.

[4] = system: HT-1376 cells; assay: Saturation binding assay on intact cells; type: cell-based, human; conditions: intact HT-1376 cells, ±SD; for Kd: 60 min, PBS wash, apparent
Protocol: For the saturation binding assay, total and nonspecific binding were determined as described above using 10 different radioligand concentrations ([…]) prepared by serial 1:1 dilution. Plots of “total binding” = f(radioligand) were analyzed by nonlinear regressions using the model of “one site-total, accounting for ligand depletion” as implemented in GraphPad Prism, and Plots of “nonspecific binding” = f(radioligand) were analyzed by linear regressions.

[5] = biological target: human serum albumin (HSA) (Homo sapiens, UniProt P02768); type: in vitro ADME
human serum albumin (HSA), sequence (P02768 25-609): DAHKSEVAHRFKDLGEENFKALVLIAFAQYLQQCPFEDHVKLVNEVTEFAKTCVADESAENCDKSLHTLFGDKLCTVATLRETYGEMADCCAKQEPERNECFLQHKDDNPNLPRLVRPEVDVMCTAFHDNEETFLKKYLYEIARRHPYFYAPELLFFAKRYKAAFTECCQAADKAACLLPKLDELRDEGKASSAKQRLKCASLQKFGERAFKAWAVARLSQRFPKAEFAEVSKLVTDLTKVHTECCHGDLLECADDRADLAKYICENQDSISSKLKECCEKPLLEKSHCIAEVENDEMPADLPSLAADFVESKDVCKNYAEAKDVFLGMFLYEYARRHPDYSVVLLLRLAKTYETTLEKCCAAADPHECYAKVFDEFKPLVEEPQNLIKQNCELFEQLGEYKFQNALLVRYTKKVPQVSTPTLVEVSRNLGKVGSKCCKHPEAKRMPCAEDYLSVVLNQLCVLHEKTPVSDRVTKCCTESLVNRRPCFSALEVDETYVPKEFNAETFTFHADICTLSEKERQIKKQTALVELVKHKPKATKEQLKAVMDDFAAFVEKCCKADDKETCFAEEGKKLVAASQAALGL
Excerpt: page 20: S20 Figure S11: Assessment of plasma protein and HSA binding for [64Cu]Cu-1e and [64Cu]Cu-4 by ultrafiltration […] PBS), and undiluted human plasma. B) Plot of “percentage of retained activity in filter” = f([HSA]) for [64Cu]Cu-4 with nonlinear regression according to the Morrison equation ( total […] labeling). For details on the experimental method and regression analysis see ref. 1. PBS HSA Plasma 0% 20% 40% 60% 80% 47 64 50 percentage of retained activity in filter 102 103 104 105 106 107 0 20 40 60 80 100 [HSA] (nM) percentage of retained activity in filter […] A B (1 picture or pasted object on this page, not shown here)

[6] = system: HT-1376-derived tumor xenograft model; assay: Small animal PET/CT imaging; set-up: species or system mice; conditions: mouse, in vivo
Procedure, shortened: (§1)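 NMRI nude mice bore subcutaneous HT-1376 xenografts (5 × 10^6 cells in 50% Matrigel), imaged at ~200 mm^3 tumour volume. Radioligand (molar activity 25 MBq/nmol; ~9 MBq, ≈0.46 nmol) injected i.v. via tail vein, with 75 nmol blocking substance co-injected for blocking; dynamic 2 h PET from injection plus CT for attenuation correction.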

[7] = Oxidation stability in H2O2 (radio-HPLC)
Protocol: To avoid a too rapid degradation of radiolabeled peptides, a low H2O2 concentration of 0.0012% was chosen. […] In this context, there are three further thioether functionalities in each peptide due to the cyclization of the Cys residues with TATA. In Figure , the curves for the time-dependent degradation of the intact radioligands are depicted, from which the respective half-lives were calculated.
The stability toward oxidizing conditions was assessed with H2O2. For this purpose, the radioligands (2 nmol, 48 μL of labeling mixture) were treated with H2O2 (2 μL of 0.03%, final concentration of 0.0012%) at ambient temperature. At distinct time points (3, 5, and 7 h), an aliquot of 2 μL was withdrawn and diluted with 48 μL of a mixture named “Supersol,” which consists of 20% ethanol, 0.5% Triton X-100, 5 mM EDTA, 0.5 mM o-phenanthroline, and 0.1% saponin. […] The resulting solutions were analyzed by radio-HPLC (same system as that used for analyzing the ^64Cu-labelings).

[8] = Small animal PET/CT imaging; set-up: species or system mice; conditions: mouse, in vivo, TAC for heart, two-phase decay
Procedure, shortened: as §1

[9] = n-Octanol/PBS distribution coefficient (logD 7.4); type: physicochemical; conditions: pH 7.4
Protocol: The determination of logD 7.4 was performed in triplicate. A sample of the ^64Cu/^68Ga-labeled compound containing ≈1 MBq in a volume of 1 μL was added to a 1.5 mL Eppendorf tube containing 400 μL of PBS (pH 7.4) and 400 μL of n-Octanol (the phases were presaturated with each other). The tube was vortexed vigorously for 1 min and then centrifuged at 16,100g for 4 min to separate the phases. For sampling from the aqueous phase, the pipette tip was discharged while passing through the octanol layer. Then, the sample was taken within the aqueous phase. Any residual liquid was carefully removed by moving the tip along the inner wall of an Eppendorf tube. The radioactivity in a defined volume of each layer was measured (ISOMED 2100). The distribution coefficient was expressed as the logarithm of the ratio of counts per minute (cpm) measured in the n-Octanol phase to the cpm measured in the PBS phase.

Row | SMILES | Hill coefficient n [1] | chemical and proteolytic stability in human plasma [2] | CHI IAM7.4 [3] | Kd ([4]; ^64Cu-labeled ligand) [nM] | Kd ([4]; ^68Ga-labeled ligand) [nM] | binding to HSA or other plasma proteins [5] | time of highest tumor uptake [6] | also measured
1 | CSCC[C@@H]1NC(=O)[C@@H]2CSCCC(=O)N3CN(CN(C3)C(=O)CCSC[C@H](NC(=O)CC[C@H](C(=O)O)N3CCN(CC(=O)O)CCN(CC(=O)O)CC3)C(=O)N3CCC[C@H]3C(=O)N[C@@H](Cc3cccc4ccccc34)C(=O)N[C@H](CC(=O)O)C(=O)N2)C(=O)CCSC[C@@H](C(N)=O)NC(=O)[C@H](Cc2c[nH]c3ccccc23)NC(=O)[C@@H]2C[C@@H](O)CN2C(=O)[C@@H]2CCCN2C(=O)[C@H]([C@@H](C)O)NC(=O)[C@H](CO)NC(=O)[C@H](Cc2c[nH]c3ccccc23)NC(=O)[C@H](CC(=O)O)NC(=O)[C@H](CCCCNC(=N)N)NC1=O [1e] | 1.52 | No signs of degradation | 19.9 | 7.15 | 8.7 | – | – | B max (fmol/mg) ([4]; ^64Cu-labeled ligand): 780 (±23.9) fmol/mg; B max (fmol/mg) ([4]; ^68Ga-labeled ligand): 1345 (±52.5) fmol/mg
2 | CCCC[C@@H]1NC(=O)[C@@H]2CSCCC(=O)N3CN(CN(C3)C(=O)CCSC[C@H](NC(=O)CC[C@H](C(=O)O)N3CCN(CC(=O)O)CCN(CC(=O)O)CC3)C(=O)N3CCC[C@H]3C(=O)N[C@@H](Cc3cccc4ccccc34)C(=O)N[C@H](CC(=O)O)C(=O)N2)C(=O)CCSC[C@@H](C(N)=O)NC(=O)[C@H](Cc2c[nH]c3ccccc23)NC(=O)[C@@H]2C[C@@H](O)CN2C(=O)[C@@H]2CCCN2C(=O)[C@H]([C@@H](C)O)NC(=O)[C@H](CO)NC(=O)[C@H](Cc2c[nH]c3ccccc23)NC(=O)[C@H](CC(=O)O)NC(=O)[C@H](CCCCNC(=N)N)NC1=O [3a] (X1-CP[1Nal][dD]C[Nle][hArg]DWSTP[Hyp]WC-NH2; linker 1-5-15 via TATA) | 1.30 | No signs of degradation | 20.6 | – | – | – | – | –
3 | CSCC[C@@H]1NC(=O)[C@@H]2CSCCC(=O)N3CN(CN(C3)C(=O)CCSC[C@H](NC(=O)CC[C@H](C(=O)O)N3CCN(CC(=O)O)CCN(CC(=O)O)CC3)C(=O)N3CCC[C@H]3C(=O)N[C@@H](Cc3cccc4ccccc34)C(=O)N[C@H](CC(=O)O)C(=O)N2)C(=O)CCSC[C@@H](C(N)=O)NC(=O)[C@H](Cc2c[nH]c3ccccc23)NC(=O)[C@@H]2C[C@@H](O)CN2C(=O)[C@@H]2CCCN2C(=O)[C@H]([C@@H](C)O)NC(=O)[C@H](CO)NC(=O)[C@H](Cc2c[nH]c3ccccc23)NC(=O)[C@H](CC(=O)O)NC(=O)[C@H](CCCCNC(=N)N)NC1=O [[^64Cu]Cu-1e] [metal not drawn] | – | – | – | – | – | negligible binding capability | ≈ 6 min | Percent fast [%] [6]: 86.95 ±2.10%
4 | COCC[C@@H]1NC(=O)[C@@H]2CSCCC(=O)N3CN(CN(C3)C(=O)CCSC[C@H](NC(=O)CC[C@H](C(=O)O)N3CCN(CC(=O)O)CCN(CC(=O)O)CC3)C(=O)N3CCC[C@H]3C(=O)N[C@@H](Cc3cccc4ccccc34)C(=O)N[C@H](CC(=O)O)C(=O)N2)C(=O)CCSC[C@@H](C(N)=O)NC(=O)[C@H](Cc2c[nH]c3ccccc23)NC(=O)[C@@H]2C[C@@H](O)CN2C(=O)[C@@H]2CCCN2C(=O)[C@H]([C@@H](C)O)NC(=O)[C@H](CO)NC(=O)[C@H](Cc2c[nH]c3ccccc23)NC(=O)[C@H](CC(=O)O)NC(=O)[C@H](CCCCNC(=N)N)NC1=O [[^64Cu]Cu-4, metal not drawn] (X1-CP[1Nal][dD]C[hSer](Me)[hArg]DWSTP[Hyp]WC-NH2; linker 1-5-15 via TATA) | – | – | – | – | – | – | – | half-life [7]: 412 min; Kd ([5]; human): > 600000 nM; half-life ([8]; distribution phase, read-out: Blood half life fast): 1.3 ± 0.17 min; half-life ([8]; elimination phase, read-out: Blood half life slow): 32 ± 2.09 min
5 | COCC[C@@H]1NC(=O)[C@@H]2CSCCC(=O)N3CN(CN(C3)C(=O)CCSC[C@H](NC(=O)CC[C@H](C(=O)O)N3CCN(CC(=O)O)CCN(CC(=O)O)CC3)C(=O)N3CCC[C@H]3C(=O)N[C@@H](Cc3cccc4ccccc34)C(=O)N[C@H](CC(=O)O)C(=O)N2)C(=O)CCSC[C@@H](C(N)=O)NC(=O)[C@H](Cc2c[nH]c3ccccc23)NC(=O)[C@@H]2C[C@@H](O)CN2C(=O)[C@@H]2CCCN2C(=O)[C@H]([C@@H](C)O)NC(=O)[C@H](CO)NC(=O)[C@H](Cc2c[nH]c3ccccc23)NC(=O)[C@H](CC(=O)O)NC(=O)[C@H](CCCCNC(=N)N)NC1=O [[^64Cu]Cu-4] [metal not drawn] (X1-CP[1Nal][dD]C[hSer](Me)[hArg]DWSTP[Hyp]WC-NH2; linker 1-5-15 via TATA) | – | – | – | – | – | negligible binding capability | 12.5 min | logD 7.4 [9]: −2.76; body retention at 2 h p.i. [6]: 40–42%
6 | COCC[C@@H]1NC(=O)[C@@H]2CSCCC(=O)N3CN(CN(C3)C(=O)CCSC[C@H](NC(=O)CC[C@H](C(=O)O)N3CCN(CC(=O)O)CCN(CC(=O)O)CC3)C(=O)N3CCC[C@H]3C(=O)N[C@@H](Cc3cccc4ccccc34)C(=O)N[C@H](CC(=O)O)C(=O)N2)C(=O)CCSC[C@@H](C(N)=O)NC(=O)[C@H](Cc2c[nH]c3ccccc23)NC(=O)[C@@H]2C[C@@H](O)CN2C(=O)[C@@H]2CCCN2C(=O)[C@H]([C@@H](C)O)NC(=O)[C@H](CO)NC(=O)[C@H](Cc2c[nH]c3ccccc23)NC(=O)[C@H](CC(=O)O)NC(=O)[C@H](CCCCNC(=N)N)NC1=O [compound 4] (X1-CP[1Nal][dD]C[hSer](Me)[hArg]DWSTP[Hyp]WC-NH2; linker 1-5-15 via TATA) | 1.72 | No signs of degradation | 20.2 | 6.06 | 13.1 | – | – | –
